# Assay results: patent US11672788B2, “Histone deacetylase inhibitors for immunomodulation in tumor microenvironment” (GREAT NOVEL THERAPEUTICS BIOTECH & MEDICALS CORPORATION, priority 2020, dated 2023)
# Columns and labels:
# SW48 cells [1] = assay: Cell cycle arrest by PI flow cytometry; type: cell-based, human; conditions: for Percentage of Cell Cycle Distribution G0/G1 / Percentage of Cell Cycle Distribution G2/M / Percentage of Cell Cycle Distribution S: 72 h
# Procedure: (§1) A PI/RNase staining assay (BD Bioscience™) was performed to reveal the presence of cell cycle arrest and apoptotic cells after treatment with GNTbm compounds, Chidamide and Entinostat. […] After treatment cells were harvested, fixed with 80% ethanol for 24 h, washed with 1×PBS and stained with PI/RNase for 15 min at room temperature. The cells were then analyzed using Flow Cytometer within 1 h.
# NCI-N87 = assay: In vitro cytotoxicity MTT assay; type: cell-based; conditions: Homo sapiens, 72 h, IC50 ± SD
# Procedure: (§2) Six different cell lines were used, including human breast cancer cell line MDA-MB-231 (6×10^3), MDA-MB-453 (2.4×10^4), SK-BR-3 (6×10^3), human breast epithelial cell line M10 (6×10^3), human gastric carcinoma NCI-N87 (2.4×10^4), and human colorectal adenocarcinoma SW48 (2.4×10^4), and seeded in a 96 well plate. Cell lines were obtained from Bioresource Collection and Research Center, BCRC, Taiwan. […] After 72 h, MTT assay (Cayman™) was used to determine the cellular viability.
# SK-BR-3 = assay: In vitro cytotoxicity MTT assay; type: cell-based; conditions: Homo sapiens, 72 h, IC50 ± SD
# Procedure: as §2
# M10 = assay: In vitro cytotoxicity MTT assay; type: cell-based, human; conditions: IC50 ± SD
# Procedure: as §2
# MDA-MB-453 = assay: In vitro cytotoxicity MTT assay; type: cell-based, human; conditions: IC50 ± SD
# Procedure: as §2
# MDA-MB-231 = assay: In vitro cytotoxicity MTT assay; type: cell-based, human; conditions: IC50 ± SD
# Procedure: as §2
# SW48 = assay: In vitro cytotoxicity MTT assay; type: cell-based, human; conditions: IC50 ± SD
# Procedure: as §2
# Saturation solubility = type: physicochemical; conditions: ddH2O, 25° C., 90 minutes; mean ± SD; BDL: Below detection limit
# Procedure: Samples of 5 mg of compounds were added to 5 ml volumetric flasks containing ddH2O and shaken at 100 rpm in an incubator at 25° C. for 90 minutes. The resulting suspension was filtered through a 0.22 μm filter. The concentrations of compounds were determined spectrophotometrically at 256 nm. The saturation solubility of each sample was determined in triplicates and the mean value and standard deviation were reported.
# HDAC3 [2] = target: T1, HDAC3 (Homo sapiens (Human), UniProt O15379); assay: HDAC3 enzymatic kinetic assay; type: biochemical; conditions: 2 μM; 20 min, 40 min and 60 min
# T1 sequence (O15379 whole entry): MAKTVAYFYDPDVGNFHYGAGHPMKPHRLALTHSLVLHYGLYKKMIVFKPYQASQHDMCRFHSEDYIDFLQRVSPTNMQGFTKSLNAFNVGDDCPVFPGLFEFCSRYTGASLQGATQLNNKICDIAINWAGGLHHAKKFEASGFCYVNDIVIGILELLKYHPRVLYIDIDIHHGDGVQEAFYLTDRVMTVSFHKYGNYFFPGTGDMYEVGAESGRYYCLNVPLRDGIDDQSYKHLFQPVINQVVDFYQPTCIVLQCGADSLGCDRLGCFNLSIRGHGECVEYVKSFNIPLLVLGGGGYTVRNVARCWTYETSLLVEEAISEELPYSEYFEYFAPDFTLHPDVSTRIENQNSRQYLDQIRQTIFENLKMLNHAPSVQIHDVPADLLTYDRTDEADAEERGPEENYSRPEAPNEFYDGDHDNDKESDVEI
# T1 sequence (Q9Y618 395-489 partner): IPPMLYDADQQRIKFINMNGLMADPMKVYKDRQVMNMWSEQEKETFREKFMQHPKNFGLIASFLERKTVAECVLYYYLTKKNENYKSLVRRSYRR
# Procedure: (§3) HDAC3 enzymatic kinetic assay was performed according to standard Protocols (Fluorgenic HDAC3 assay kit, BPS Bioscience™). […] After incubation, assay developer was added to the samples and the absorbance was read at fluorogenic wavelength. The relative inhibition to HDAC3 activity in each sample was determined.
# SW48 cells [3] = assay: Cell apoptosis (sub-G1) by PI flow cytometry; type: cell-based, human; conditions: 72 h
# Procedure: as §1
# HDAC3 [4] = target: T1, HDAC3; assay: HDACs 1, 2, and 3 enzymatic inhibition (fluorogenic kit, 1 h); type: biochemical; conditions: 37° C.
# Procedure: as §3, with “HDACs” for “HDAC3 enzymatic kinetic”, “HDACs 1, 2, and 3” for “HDAC3”, “1 h,” for “incubation,”, “HDACs 1, 2, and 3 activities” for “HDAC3 activity”
# HDAC1 = HDAC1 (Homo sapiens (Human), UniProt Q13547); assay: as above; type: biochemical; conditions: 37° C.
# Chain of HDAC1 (Q13547 whole entry): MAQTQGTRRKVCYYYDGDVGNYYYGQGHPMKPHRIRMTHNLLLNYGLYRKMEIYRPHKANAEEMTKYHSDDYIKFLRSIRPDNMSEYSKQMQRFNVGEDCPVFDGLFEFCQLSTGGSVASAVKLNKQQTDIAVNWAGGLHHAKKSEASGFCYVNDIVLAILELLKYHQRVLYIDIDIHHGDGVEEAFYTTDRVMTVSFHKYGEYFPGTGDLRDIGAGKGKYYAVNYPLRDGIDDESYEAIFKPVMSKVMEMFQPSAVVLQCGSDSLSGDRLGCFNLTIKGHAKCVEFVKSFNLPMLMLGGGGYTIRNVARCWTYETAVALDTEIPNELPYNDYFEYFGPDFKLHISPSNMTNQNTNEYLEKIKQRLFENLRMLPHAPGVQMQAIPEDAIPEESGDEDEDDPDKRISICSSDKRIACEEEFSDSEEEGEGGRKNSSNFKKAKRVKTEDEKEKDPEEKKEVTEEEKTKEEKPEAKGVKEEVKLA
# Procedure: as §3, with “HDACs” for “HDAC3 enzymatic kinetic”, “HDACs 1, 2, and 3” for “HDAC3”, “1 h,” for “incubation,”, “HDACs 1, 2, and 3 activities” for “HDAC3 activity”
# HDAC2 = HDAC2 (Homo sapiens (Human), UniProt Q92769); assay: as above; type: biochemical; conditions: 37° C.
# Chain of HDAC2 (Q92769 whole entry): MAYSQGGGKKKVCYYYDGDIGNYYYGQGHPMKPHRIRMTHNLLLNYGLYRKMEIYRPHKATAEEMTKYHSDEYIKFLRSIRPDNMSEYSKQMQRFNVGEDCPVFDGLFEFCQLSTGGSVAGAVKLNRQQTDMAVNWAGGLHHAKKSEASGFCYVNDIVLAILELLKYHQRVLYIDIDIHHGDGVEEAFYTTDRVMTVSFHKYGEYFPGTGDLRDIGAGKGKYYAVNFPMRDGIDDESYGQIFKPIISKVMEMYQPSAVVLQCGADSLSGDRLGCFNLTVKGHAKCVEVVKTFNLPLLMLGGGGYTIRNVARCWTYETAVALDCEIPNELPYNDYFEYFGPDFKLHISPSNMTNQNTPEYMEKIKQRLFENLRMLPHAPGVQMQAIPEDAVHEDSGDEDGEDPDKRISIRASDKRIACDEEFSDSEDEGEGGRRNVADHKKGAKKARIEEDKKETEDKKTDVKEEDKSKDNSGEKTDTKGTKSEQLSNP
# Procedure: as §3, with “HDACs” for “HDAC3 enzymatic kinetic”, “HDACs 1, 2, and 3” for “HDAC3”, “1 h,” for “incubation,”, “HDACs 1, 2, and 3 activities” for “HDAC3 activity”
structure (smiles),measurement,setting,value
"Nc1cc(F)ccc1NC(=O)c1ccc(CNC(=O)/C=C/c2cccnc2)cc1 [Chidamide, reference compound]",Percentage of Cell Cycle Distribution G0/G1,"SW48 cells [1]; SW48, 0.3125 μM",65.7%
same,Percentage of Cell Cycle Distribution G2/M,"SW48 cells [1]; SW48, 0.3125 μM",16.7%
same,Percentage of Cell Cycle Distribution S,"SW48 cells [1]; SW48, 0.3125 μM",17.6%
same,Percentage of Cell Cycle Distribution G0/G1,"SW48 cells [1]; SW48, 0.625 μM",68.1%
same,Percentage of Cell Cycle Distribution G2/M,"SW48 cells [1]; SW48, 0.625 μM",17.5%
same,Percentage of Cell Cycle Distribution S,"SW48 cells [1]; SW48, 0.625 μM",14.4%
same,Percentage of Cell Cycle Distribution G0/G1,"SW48 cells [1]; SW48, 1.25 μM",70.6%
same,Percentage of Cell Cycle Distribution G2/M,"SW48 cells [1]; SW48, 1.25 μM",15.3%
same,Percentage of Cell Cycle Distribution S,"SW48 cells [1]; SW48, 1.25 μM",14.1%
same,Percentage of Cell Cycle Distribution G0/G1,"SW48 cells [1]; SW48, 5 μM",79.9%
same,Percentage of Cell Cycle Distribution G2/M,"SW48 cells [1]; SW48, 5 μM",11.6%
same,Percentage of Cell Cycle Distribution S,"SW48 cells [1]; SW48, 5 μM",8.5%
same,Cell cycle arrest,"SW48 cells [1]; SW48, doses of Table 12",induced cell cycle arrest in the G0/G1 phase
same,IC50,NCI-N87,3.09 ± 0.2 µM
same,IC50,SK-BR-3,3.24 ± 0.98 µM
same,IC50,M10; 72 h,4.94 ± 0.87 µM
same,IC50,"M10; Homo sapiens, M10, 72 h",2.72 ± 2.6 µM
same,IC50,MDA-MB-453; 72 h,1.36 ± 0.12 µM
same,IC50,"MDA-MB-453; Homo sapiens, MDA-MB-453, 72 h",1.77 ± 0.02 µM
same,IC50,MDA-MB-231; 72 h,17.4 ± 1.98 µM
same,IC50,"MDA-MB-231; Homo sapiens, MDA-MB-231, 72 h",25.6 ± 3.05 µM
same,IC50,SW48; 72 h,5.43 ± 1.06 µM
same,Saturation Solubility,Saturation solubility,BDL
same,Inhibition of HDAC 3 enzyme activities (kinetics),HDAC3 [2],stronger inhibition of HDAC 3 enzyme activities than Entinostat
same,Percentages of Cell Apoptosis,"SW48 cells [3]; SW48, 0.3125 μM",9.0%
same,Percentages of Cell Apoptosis,"SW48 cells [3]; SW48, 0.625 μM",10.2%
same,Percentages of Cell Apoptosis,"SW48 cells [3]; SW48, 1.25 μM",15.1%
same,Percentages of Cell Apoptosis,"SW48 cells [3]; SW48, 5 μM",35.4%
"Cc1ccc(/C=C/CC(=O)Nc2ccc(C(=O)Nc3ccc(F)cc3N)cn2)cn1 [GNTbm-01, 6-((E)-4-(6-methylpyridin-3-yl)but-3-enamido)-N-(2-amino-4-fluorophenyl)pyridine-3-carboxamide]",IC50,SK-BR-3,28.5 ± 1.85 µM
same,IC50,"M10; Homo sapiens, M10, 72 h",24.8 ± 1.15 µM
same,IC50,"MDA-MB-453; Homo sapiens, MDA-MB-453, 72 h",20.9 ± 4.44 µM
same,IC50,"MDA-MB-231; Homo sapiens, MDA-MB-231, 72 h",49.8 ± 4.9 µM
same,IC50,"SW48; Homo sapiens, SW48, 72 h",> 50 µM
same,IC50,HDAC3 [4],2.75 ± 0.13 µM
same,IC50,HDAC1,6.77 ± 0.76 µM
same,IC50,HDAC2,2.68 ± 0.2 µM
